Laboratory results from publication PMC4648050, “Discovery of Inhibitors of Trypanosoma brucei by Phenotypic Screening of a Focused Protein Kinase Library” (Chemmedchem, 2015).

Key:
[1] = Intrinsic clearance in mouse liver microsomes; format: in vitro ADME; conditions: mouse hepatic microsomes, 0.5 μM compound
Method: Intrinsic clearance experiments: Test compound (0.5 μM) was incubated with female CD1 mouse liver microsomes (Xenotech LLC; 0.5 mg mL^−1 50 mM potassium phosphate buffer, pH 7.4), and the reaction started with the addition of excess NADPH (8 mg mL^−1 50 mM potassium phosphate buffer, pH 7.4). Immediately, at t0, then at 3, 6, 9, 15, and 30 min an aliquot (50 μL) of the incubation mixture was removed and mixed with MeCN (100 μL) to stop the reaction. Internal standard was added to all samples, the samples were centrifuged to sediment precipitated protein, and the plates were then sealed prior to UPLC–MS/MS analysis using a Quattro Premier XE instrument (Waters Corp., USA). XLfit (IDBS, UK) was used to calculate the exponential decay and consequently the rate constant (k) from the ratio of peak area of test compound to internal standard at each time point. The rate of intrinsic clearance [CLint, mL min^−1 (g liver)^−1] of each test compound was then calculated with Equation (3): […]
in which V [mL (mg protein)^−1] is the incubation volume per mg protein added, and microsomal protein yield is taken as 52.5 mg protein per gram of liver. Verapamil (0.5 μM) was used as a positive control to confirm acceptable assay performance.

[2] = biological target: VEG-FR (Homo sapiens, UniProt P17948); experiment: Kinase panel: VEG-FR; format: biochemical, human/mammalian; conditions: compound at 10 μM, read-out: % of activity respect of the control
Method: (§1) The DDU kinase-focused compound set contains lead-like scaffolds that are designed to target protein kinases; they have kinase hinge binding motifs. Four of the 1H-imidazopyrazinones were screened against a human/mammalian kinase panel at the University of Dundee (http://www.kinase-screen.mrc.ac.uk) at a concentration of 10 μM. At the time of testing the panel contained 79 mammalian kinases selected to provide a broad coverage of the mammalian kinome (∼500 kinases in the human genome).[3] None of the compounds were active against any of the kinases at 10 μM.

[3] = biological target: p38a MAPK (Homo sapiens, UniProt Q16539); experiment: Kinase panel: p38a MAPK; format: biochemical, human/mammalian; conditions: compound at 10 μM, read-out: % of activity respect of the control
Method: as §1

[4] = biological target: PAK4 (Homo sapiens, UniProt O96013); experiment: Kinase panel: PAK4; format: biochemical, human/mammalian; conditions: compound at 10 μM, read-out: % of activity respect of the control
Method: as §1

[5] = biological target: Lck (Homo sapiens, UniProt P06239); experiment: Kinase panel: Lck; format: biochemical, human/mammalian; conditions: compound at 10 μM, read-out: % of activity respect of the control
Method: as §1

[6] = biological target: RSK1 (Homo sapiens, UniProt Q15418); experiment: Kinase panel: RSK1; format: biochemical, human/mammalian; conditions: compound at 10 μM, read-out: % of activity respect of the control
Method: as §1

[7] = biological target: T1, TBK1 (DU12569) (Homo sapiens, UniProt Q9UHD2); experiment: Kinase panel: TBK1 (DU12569); format: biochemical, human/mammalian; conditions: compound at 10 μM, read-out: % of activity respect of the control
T1 sequence (Q9UHD2 1-729): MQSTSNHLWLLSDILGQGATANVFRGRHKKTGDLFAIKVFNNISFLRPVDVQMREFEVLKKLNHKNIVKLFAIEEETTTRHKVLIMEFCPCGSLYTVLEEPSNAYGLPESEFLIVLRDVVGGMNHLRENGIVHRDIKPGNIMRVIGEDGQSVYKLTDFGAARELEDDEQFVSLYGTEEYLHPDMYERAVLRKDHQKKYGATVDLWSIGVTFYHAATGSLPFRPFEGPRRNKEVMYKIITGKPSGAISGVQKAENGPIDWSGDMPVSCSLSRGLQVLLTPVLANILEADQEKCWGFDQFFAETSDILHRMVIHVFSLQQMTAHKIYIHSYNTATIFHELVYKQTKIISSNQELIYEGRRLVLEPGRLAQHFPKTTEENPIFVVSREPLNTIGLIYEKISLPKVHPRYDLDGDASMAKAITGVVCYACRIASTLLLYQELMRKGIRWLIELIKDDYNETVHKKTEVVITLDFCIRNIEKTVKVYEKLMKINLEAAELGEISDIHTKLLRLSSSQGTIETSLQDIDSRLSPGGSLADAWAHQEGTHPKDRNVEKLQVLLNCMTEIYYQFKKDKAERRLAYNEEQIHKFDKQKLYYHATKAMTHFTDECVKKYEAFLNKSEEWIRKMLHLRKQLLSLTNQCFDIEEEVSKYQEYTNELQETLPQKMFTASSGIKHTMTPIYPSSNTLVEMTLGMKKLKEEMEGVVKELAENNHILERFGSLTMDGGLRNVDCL
Method: as §1

[8] = biological target: MKK1 (Homo sapiens, UniProt Q02750); experiment: Kinase panel: MKK1; format: biochemical, human/mammalian; conditions: compound at 10 μM, read-out: % of activity respect of the control
Method: as §1

[9] = test system: AMPK; experiment: Kinase panel: AMPK; format: biochemical, human/mammalian; conditions: compound at 10 μM
Method: as §1

[10] = biological target: EPH A2 (Homo sapiens, UniProt P29317); experiment: Kinase panel: EPH A2; format: biochemical, human/mammalian; conditions: compound at 10 μM, read-out: % of activity respect of the control
Method: as §1

[11] = biological target: MAPKAP-K2 (Homo sapiens, UniProt P49137); experiment: Kinase panel: MAPKAP-K2; format: biochemical, human/mammalian; conditions: compound at 10 μM, read-out: % of activity respect of the control
Method: as §1

[12] = biological target: MNK2 (Homo sapiens, UniProt Q9HBH9); experiment: Kinase panel: MNK2; format: biochemical, human/mammalian; conditions: compound at 10 μM, read-out: % of activity respect of the control
Method: as §1

[13] = biological target: T2, PKC zeta (Homo sapiens, UniProt Q05513); experiment: Kinase panel: PKC zeta; format: biochemical, human/mammalian; conditions: compound at 10 μM, read-out: % of activity respect of the control
T2 sequence (Q05513 1-592): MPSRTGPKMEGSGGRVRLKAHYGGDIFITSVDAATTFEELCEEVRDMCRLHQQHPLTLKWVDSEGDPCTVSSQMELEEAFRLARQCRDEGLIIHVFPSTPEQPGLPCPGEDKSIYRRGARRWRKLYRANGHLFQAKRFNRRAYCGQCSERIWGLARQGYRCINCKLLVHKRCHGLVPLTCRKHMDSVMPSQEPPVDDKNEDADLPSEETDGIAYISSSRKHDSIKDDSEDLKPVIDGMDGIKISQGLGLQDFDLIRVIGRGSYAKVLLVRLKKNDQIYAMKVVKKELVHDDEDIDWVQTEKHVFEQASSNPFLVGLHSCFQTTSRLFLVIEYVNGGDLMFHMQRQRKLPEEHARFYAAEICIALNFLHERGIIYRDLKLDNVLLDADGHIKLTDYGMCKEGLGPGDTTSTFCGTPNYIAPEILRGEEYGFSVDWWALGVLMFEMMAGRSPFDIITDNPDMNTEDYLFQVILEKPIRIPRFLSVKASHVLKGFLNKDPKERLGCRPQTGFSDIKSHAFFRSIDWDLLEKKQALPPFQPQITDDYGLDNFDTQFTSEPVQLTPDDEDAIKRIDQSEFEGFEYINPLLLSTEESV
Method: as §1

[14] = biological target: PLK1 (Homo sapiens, UniProt P53350); experiment: Kinase panel: PLK1; format: biochemical, human/mammalian; conditions: compound at 10 μM, read-out: % of activity respect of the control
Method: as §1

[15] = biological target: PLK1 (Okadaic Acid) (Homo sapiens, UniProt P53350); experiment: Kinase panel: PLK1 (Okadaic Acid); format: biochemical, human/mammalian; conditions: compound at 10 μM, read-out: % of activity respect of the control
Method: as §1

Sequence of VEG-FR (P17948 27-1338): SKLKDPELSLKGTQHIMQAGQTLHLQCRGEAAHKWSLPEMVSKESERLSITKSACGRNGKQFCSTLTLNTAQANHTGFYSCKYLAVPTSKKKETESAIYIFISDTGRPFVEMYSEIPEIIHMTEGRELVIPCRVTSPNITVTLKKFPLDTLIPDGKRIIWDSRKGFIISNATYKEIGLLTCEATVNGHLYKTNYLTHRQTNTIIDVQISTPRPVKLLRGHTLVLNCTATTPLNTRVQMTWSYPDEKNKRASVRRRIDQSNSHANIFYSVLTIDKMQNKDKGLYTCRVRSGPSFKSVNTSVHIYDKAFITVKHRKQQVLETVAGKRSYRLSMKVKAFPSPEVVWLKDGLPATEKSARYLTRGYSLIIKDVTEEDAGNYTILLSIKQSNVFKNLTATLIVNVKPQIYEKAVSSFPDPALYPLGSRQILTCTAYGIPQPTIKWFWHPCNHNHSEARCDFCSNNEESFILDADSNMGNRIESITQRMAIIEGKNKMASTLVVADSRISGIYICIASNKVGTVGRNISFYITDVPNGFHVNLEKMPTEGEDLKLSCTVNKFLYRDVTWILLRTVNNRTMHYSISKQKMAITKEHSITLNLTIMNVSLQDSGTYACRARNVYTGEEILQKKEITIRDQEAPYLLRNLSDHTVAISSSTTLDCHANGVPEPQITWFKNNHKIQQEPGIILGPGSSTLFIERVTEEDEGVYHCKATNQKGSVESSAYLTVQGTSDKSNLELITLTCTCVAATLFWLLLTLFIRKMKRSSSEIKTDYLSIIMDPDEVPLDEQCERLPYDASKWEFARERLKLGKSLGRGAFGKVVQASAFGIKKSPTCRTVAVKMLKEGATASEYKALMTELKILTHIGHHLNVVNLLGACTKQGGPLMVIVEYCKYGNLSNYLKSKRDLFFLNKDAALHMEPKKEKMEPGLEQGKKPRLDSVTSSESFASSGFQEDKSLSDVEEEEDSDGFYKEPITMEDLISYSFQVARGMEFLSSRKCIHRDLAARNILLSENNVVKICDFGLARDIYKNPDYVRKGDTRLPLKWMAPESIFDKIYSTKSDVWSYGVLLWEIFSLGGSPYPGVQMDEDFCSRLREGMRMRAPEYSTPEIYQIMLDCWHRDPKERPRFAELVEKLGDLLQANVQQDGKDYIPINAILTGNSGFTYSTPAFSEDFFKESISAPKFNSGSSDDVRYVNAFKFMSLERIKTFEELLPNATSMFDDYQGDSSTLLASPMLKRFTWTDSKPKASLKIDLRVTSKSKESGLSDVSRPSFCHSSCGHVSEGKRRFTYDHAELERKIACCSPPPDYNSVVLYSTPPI
Sequence of MKK1 (Q02750 whole entry): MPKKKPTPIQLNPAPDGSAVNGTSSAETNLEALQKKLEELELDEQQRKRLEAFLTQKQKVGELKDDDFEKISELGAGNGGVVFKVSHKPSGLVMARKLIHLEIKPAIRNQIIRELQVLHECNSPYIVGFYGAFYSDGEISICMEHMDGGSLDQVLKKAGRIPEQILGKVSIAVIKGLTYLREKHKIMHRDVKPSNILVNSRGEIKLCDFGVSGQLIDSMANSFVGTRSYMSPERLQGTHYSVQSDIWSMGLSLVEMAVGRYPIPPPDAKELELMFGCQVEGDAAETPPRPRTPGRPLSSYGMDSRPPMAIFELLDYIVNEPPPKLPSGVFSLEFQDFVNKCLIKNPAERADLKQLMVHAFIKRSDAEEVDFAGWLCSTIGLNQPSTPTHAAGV
Sequence of PAK4 (O96013 whole entry): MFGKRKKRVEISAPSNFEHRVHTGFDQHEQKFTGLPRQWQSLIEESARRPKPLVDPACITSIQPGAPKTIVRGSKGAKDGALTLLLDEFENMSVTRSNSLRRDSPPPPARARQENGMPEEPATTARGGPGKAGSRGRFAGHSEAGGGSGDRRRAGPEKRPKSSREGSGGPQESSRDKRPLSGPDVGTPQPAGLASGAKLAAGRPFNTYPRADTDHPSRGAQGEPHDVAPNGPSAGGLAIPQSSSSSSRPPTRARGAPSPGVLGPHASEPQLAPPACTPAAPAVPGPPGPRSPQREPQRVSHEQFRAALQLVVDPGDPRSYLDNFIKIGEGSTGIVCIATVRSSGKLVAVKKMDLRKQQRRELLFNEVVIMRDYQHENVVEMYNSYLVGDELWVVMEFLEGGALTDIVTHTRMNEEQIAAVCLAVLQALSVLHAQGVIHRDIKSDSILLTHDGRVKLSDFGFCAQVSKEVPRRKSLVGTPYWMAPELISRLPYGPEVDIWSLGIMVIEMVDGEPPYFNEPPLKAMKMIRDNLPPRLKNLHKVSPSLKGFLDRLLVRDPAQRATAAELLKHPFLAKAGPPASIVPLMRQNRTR
Sequence of EPH A2 (P29317 24-976): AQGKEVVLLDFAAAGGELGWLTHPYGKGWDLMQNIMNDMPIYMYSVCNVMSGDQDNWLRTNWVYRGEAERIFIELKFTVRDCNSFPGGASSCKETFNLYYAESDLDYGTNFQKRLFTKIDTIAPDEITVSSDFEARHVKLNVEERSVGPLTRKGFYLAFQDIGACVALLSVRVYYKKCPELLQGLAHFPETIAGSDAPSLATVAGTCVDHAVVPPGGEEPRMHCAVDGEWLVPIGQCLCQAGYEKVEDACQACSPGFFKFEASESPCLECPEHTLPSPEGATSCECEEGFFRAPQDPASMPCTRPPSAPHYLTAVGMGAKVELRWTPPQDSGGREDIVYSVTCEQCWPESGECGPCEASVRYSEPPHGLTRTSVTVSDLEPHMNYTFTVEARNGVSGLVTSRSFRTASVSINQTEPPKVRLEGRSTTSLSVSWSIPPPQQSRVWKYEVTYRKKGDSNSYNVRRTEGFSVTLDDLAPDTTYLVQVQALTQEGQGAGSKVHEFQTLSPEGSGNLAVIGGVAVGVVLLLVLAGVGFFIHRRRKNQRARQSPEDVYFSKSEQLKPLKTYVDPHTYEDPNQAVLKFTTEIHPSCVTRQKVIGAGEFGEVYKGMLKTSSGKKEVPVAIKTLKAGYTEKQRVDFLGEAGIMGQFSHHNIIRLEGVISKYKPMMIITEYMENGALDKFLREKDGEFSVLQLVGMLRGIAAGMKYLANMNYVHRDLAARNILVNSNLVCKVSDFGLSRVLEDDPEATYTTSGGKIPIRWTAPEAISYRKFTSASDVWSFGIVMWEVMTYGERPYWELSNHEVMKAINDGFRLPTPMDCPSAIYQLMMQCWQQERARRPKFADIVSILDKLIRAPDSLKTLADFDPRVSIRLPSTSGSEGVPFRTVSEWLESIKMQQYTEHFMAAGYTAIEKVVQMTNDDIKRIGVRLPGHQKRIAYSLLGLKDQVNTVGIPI
Sequence of MAPKAP-K2 (P49137 whole entry): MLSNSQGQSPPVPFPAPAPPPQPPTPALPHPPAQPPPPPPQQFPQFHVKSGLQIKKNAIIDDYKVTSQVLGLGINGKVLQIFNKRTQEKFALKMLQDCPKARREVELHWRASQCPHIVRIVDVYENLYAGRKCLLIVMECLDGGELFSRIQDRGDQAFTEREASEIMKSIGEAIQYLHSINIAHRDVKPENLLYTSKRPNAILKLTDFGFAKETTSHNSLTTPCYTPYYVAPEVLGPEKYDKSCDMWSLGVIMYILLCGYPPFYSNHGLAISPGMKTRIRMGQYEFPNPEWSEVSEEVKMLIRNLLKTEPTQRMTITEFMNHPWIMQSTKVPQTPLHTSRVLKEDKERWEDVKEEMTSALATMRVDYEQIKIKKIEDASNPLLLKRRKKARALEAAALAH
Sequence of p38a MAPK (Q16539 whole entry): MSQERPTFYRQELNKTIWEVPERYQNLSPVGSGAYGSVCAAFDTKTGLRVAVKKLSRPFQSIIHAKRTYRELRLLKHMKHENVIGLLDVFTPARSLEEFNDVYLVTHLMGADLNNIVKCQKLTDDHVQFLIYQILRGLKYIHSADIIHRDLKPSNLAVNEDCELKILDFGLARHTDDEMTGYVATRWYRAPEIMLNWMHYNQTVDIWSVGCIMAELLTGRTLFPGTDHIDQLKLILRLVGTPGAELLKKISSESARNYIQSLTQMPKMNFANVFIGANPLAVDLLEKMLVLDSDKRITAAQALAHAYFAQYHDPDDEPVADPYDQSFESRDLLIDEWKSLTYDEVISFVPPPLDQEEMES
Sequence of Lck (P06239 whole entry): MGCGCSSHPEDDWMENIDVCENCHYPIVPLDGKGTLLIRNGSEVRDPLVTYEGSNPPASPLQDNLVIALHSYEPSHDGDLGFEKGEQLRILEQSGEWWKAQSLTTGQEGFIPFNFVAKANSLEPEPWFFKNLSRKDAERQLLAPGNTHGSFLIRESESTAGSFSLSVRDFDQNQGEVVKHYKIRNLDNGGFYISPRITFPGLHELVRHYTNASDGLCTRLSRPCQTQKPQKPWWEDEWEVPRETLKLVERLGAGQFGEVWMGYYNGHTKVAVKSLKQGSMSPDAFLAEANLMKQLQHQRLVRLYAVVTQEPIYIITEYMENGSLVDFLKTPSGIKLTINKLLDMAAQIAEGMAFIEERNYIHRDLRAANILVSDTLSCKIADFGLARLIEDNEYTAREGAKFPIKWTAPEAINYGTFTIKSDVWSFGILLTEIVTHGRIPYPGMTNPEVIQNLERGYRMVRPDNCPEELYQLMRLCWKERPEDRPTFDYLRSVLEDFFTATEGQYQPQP
Sequence of MNK2 (Q9HBH9 whole entry): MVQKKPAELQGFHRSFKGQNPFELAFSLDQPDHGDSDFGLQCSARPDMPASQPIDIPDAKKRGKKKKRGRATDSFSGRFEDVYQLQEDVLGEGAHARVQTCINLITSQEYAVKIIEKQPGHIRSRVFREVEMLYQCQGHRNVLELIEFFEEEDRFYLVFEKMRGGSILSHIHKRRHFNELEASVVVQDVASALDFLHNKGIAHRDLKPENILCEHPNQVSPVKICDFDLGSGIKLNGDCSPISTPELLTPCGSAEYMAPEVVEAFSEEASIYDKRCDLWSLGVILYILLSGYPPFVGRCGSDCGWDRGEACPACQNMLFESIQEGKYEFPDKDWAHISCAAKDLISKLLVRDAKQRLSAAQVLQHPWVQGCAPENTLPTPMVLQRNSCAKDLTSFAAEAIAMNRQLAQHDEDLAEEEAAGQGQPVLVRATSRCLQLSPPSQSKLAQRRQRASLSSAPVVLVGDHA

| SMILES | CLint [1] [mL/min/g] | remaining activity at 10 µM [2] [%] | remaining activity at 10 µM [3] [%] | remaining activity at 10 µM [4] [%] | remaining activity at 10 µM [5] [%] | remaining activity at 10 µM [6] [%] | remaining activity at 10 µM [7] [%] | remaining activity at 10 µM [8] [%] | % of activity respect of the control [9] [%] | remaining activity at 10 µM [10] [%] | remaining activity at 10 µM [11] [%] | remaining activity at 10 µM [12] [%] | remaining activity at 10 µM [13] [%] | remaining activity at 10 µM [14] [%] | remaining activity at 10 µM [15] [%] |
| --- | --- | --- | --- | --- | --- | --- | --- | --- | --- | --- | --- | --- | --- | --- | --- |
| O=c1[nH]c2ncc(-c3ccccc3CO)nc2n1C1CCCCC1 [Compound 28] | 2.4 | – | – | – | – | – | – | – | – | – | – | – | – | – | – |
| C[C@H](c1ccccc1)n1c(=O)[nH]c2ncc(-c3ccccc3)nc21 [Compound 14, (R)-6-Phenyl-1-(1-phenylethyl)-1H-imidazo[4,5-b]pyrazin-2(3H)-one] | – | 73 | 88 | 86 | 89 | 89 | 78 | 87 | 95 | 89 | 84 | 97 | 88 | 104 | – |
| O=c1[nH]c2ncc(-c3ccc(F)cc3)nc2n1C1CCCCC1 [Compound 12, 1-Cyclohexyl-6-(4-fluorophenyl)-1H-imidazo[4,5-b]pyrazin-2(3H)-one] | 0.7 | 107 | 86 | 103 | 105 | 89 | 90 | 62 | 100 | 97 | 101 | 103 | 90 | 117 | 96 |
| O=c1[nH]c2ncc(-c3ccc(F)cc3)nc2n1CC1CC1 [Compound 10] | – | 98 | 87 | 106 | 99 | 85 | 86 | 97 | 94 | 96 | 104 | 99 | 90 | 102 | 109 |
| CC(c1ccccc1)n1c(=O)[nH]c2ncc(-c3ccc(F)cc3)nc21 (stereo not shown) [Compound 1] | < 0.5 | 117 | 88 | 101 | 90 | 96 | 95 | 106 | 97 | 105 | 90 | 106 | 94 | 111 | 96 |
